Test results as given in patent US10774068B2, “Composition and methods for inhibiting mammalian sterile 20-like kinase 1” (The Scripps Research Institute, priority 2015, dated 2020).
Read-outs that look alike come from different tables or passages of the source.

Key:
MST1 = MST1 (Homo sapiens (Human), UniProt Q13043); experiment: MST1 biochemical LanthaScreen Eu Kinase Binding Assay
Experimental: (§1) MST1 and MST2 biochemical LanthaScreen Eu Kinase Binding Assay was based on the binding and displacement of kinase tracer to the kinase of interest. Compounds in 1000×DMSO stock solution was dispensed using automated dispensing system (Labcyte) to 384 well Corning Microplate at 15 nL, 5 uL of Kinase buffer A was added to each well. Plates were shaken and incubated for 1 min to ensure well dissolution of compounds.

MST2 = MST2 (Homo sapiens (Human), UniProt Q13188); experiment: MST2 biochemical LanthaScreen Eu Kinase Binding Assay
Sequence of MST2 (Q13188 whole entry): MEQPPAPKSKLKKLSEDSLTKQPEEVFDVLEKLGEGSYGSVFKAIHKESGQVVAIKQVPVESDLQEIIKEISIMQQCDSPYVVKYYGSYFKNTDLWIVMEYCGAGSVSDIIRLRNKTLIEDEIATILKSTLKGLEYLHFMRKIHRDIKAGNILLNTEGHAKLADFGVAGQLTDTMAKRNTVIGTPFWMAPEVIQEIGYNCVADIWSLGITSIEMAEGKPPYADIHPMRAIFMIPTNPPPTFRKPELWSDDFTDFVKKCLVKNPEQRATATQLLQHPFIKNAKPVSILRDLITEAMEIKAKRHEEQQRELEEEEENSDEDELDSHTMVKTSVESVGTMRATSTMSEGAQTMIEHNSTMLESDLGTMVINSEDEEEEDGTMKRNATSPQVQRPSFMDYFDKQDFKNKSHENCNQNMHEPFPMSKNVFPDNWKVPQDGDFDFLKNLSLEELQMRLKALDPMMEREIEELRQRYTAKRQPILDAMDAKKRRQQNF
Experimental: as §1

[1] = read-out: Kinase Binding assay-MST1 IC50
[2] = read-out: Kinase Binding assay-MST2 IC50

Sequence of MST1 (Q13043 whole entry): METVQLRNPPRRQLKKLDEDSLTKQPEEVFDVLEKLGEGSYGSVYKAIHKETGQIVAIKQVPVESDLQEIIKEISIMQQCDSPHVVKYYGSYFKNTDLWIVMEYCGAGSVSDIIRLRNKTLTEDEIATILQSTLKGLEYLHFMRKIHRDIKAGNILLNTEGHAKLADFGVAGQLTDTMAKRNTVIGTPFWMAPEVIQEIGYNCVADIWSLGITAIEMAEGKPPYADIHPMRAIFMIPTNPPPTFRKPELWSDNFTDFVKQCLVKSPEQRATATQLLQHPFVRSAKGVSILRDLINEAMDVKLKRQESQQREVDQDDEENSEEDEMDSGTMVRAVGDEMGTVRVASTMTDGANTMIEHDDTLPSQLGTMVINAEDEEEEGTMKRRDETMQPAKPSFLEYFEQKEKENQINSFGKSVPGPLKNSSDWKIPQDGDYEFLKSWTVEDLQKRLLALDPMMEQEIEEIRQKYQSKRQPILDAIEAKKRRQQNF

Row | IC50 (MST2; [2]) [nM] | Structure (SMILES) | IC50 (MST1; [1]) [nM] | IC50 (MST2) [nM] | IC50 (MST1) [nM]
1 | 100 to 1000 | CCOc1cc2ncc(C#N)c(Nc3ccc(CCc4ccccn4)c(Cl)c3)c2cc1NC(=O)CCCN(C)C [Example 107, N-(4-(3-chloro-4-(2-(pyridin-2-yl)ethyl)phenylamino)-3-cyano-7-ethoxyquinolin-6-yl)-4-(dimethylamino)butanamide] | 100 to 1000 |  | 
2 |  | CCOc1cc2ncc(C#N)c(Nc3ccc(OCc4ncccc4C)cc3C#N)c2cc1NC(=O)CCCN(C)C [Example 30] | < 100 | 100 to 1000 | 
3 |  | CCOc1cc2ncc(C#N)c(Nc3cc(C)c(OCc4ncccc4C)c(C)c3)c2cc1NC(=O)CCCN(C)C [Example 32] | < 100 | 100 to 1000 | 
4 |  | CCOc1cc2ncc(C#N)c(Nc3ccc(OCc4cccc(OC)n4)c(Cl)c3)c2cc1NC(=O)CCCN(C)C [Example 6] |  | 100 to 1000 | 100 to 1000
5 | < 100 | CCOc1cc2ncc(C#N)c(Nc3ccc(OCc4cccc(Cl)n4)c(Cl)c3)c2cc1NC(=O)CCCN(C)C [Example 7] | < 100 |  | 
6 |  | CCOc1cc2ncc(C#N)c(Nc3ccc(OCc4ccc(Cl)cn4)c(Cl)c3)c2cc1NC(=O)CCCN(C)C [Example 14] |  | 100 to 1000 | 100 to 1000
7 |  | CCOc1cc2ncc(C#N)c(Nc3ccc(OCc4ncccc4C)c(C#N)c3)c2cc1NC(=O)CCCN(C)C [Example 27] |  | 1000 to 10000 | 100 to 1000
8 | < 100 | CCOc1cc2ncc(C#N)c(Nc3ccc(OCc4nc(Br)ccc4C)c(Cl)c3)c2cc1NC(=O)CCCN(C)C [Example 76] | < 100 |  | 
9 |  | CCOc1cc2ncc(C#N)c(Nc3ccc(OCc4ccccn4)c(Cl)c3)c2cc1NC(=O)CCCN1CCOCC1 [Example 99] | 100 to 1000 | 100 to 1000 | 
10 |  | Cc1cccnc1COc1ccc(Nc2ccnc3ccc(NC(=O)CCCN(C)C)cc23)c(Cl)c1 [Example 147, N-(4-(2-chloro-4-((3-methylpyridin-2-yl)methoxy)phenylamino)quinolin-6-yl)-4-(dimethylamino)butanamide] | 1000 to 10000 | 1000 to 10000 | 
11 |  | CCOc1cc2ncc(C#N)c(Nc3ccc(OCc4cc(C5CC5)on4)c(Cl)c3)c2cc1NC(=O)CCCN(C)C [Example 40] | 100 to 1000 | 100 to 1000 | 
12 | < 100 | CCOc1cc2ncc(C#N)c(Nc3cc(C)c(OCc4ncccc4C)cc3C)c2cc1NC(=O)/C=C/CN(C)C [Example 94] | < 100 |  | 
13 | < 100 | CCOc1cc2ncc(C#N)c(Nc3ccc(OCc4ncccc4C)c(OC)c3)c2cc1NC(=O)CCCN(C)C [Example 28] | < 100 |  | 
14 | < 100 | CCOc1cc2ncc(C#N)c(Nc3ccc(OCc4ncccc4CO)cc3Cl)c2cc1NC(=O)CCCN(C)C [Example 83] | < 100 |  | 
15 |  | CCOc1cc2ncc(C#N)c(Nc3ccc(OCc4ncc(C)o4)c(Cl)c3)c2cc1NC(=O)CCCN(C)C [Example 39] | < 100 | 100 to 1000 | 
16 | < 100 | CCOc1cc2ncc(C#N)c(Nc3ccc(OCc4ncccc4C)c(Cl)c3)c2cc1NC(C)=O [Example 84, N-(4-(3-chloro-4-((3-methylpyridin-2-yl)methoxy)phenylamino)-3-cyano-7-ethoxyquinolin-6-yl)acetamide] | < 100 |  | 
17 |  | CCOc1cc2ncc(C#N)c(Nc3ccc(OCc4cnc5c(c4)OCCO5)c(Cl)c3)c2cc1NC(=O)CCCN(C)C [Example 43] | 100 to 1000 | 1000 to 10000 | 
18 |  | CCOc1cc2ncc(C#N)c(Nc3ccc(OCc4cc(C#N)ccn4)c(Cl)c3)c2cc1NC(=O)CCCN(C)C [Example 36] | 100 to 1000 | 100 to 1000 | 

Row | IC50 (MST2; [2]) [nM] | Structure (SMILES) | IC50 (MST1; [1]) [nM] | IC50 (MST2) [nM] | IC50 (MST1) [nM]
19 |  | CCOc1cc2ncc(C#N)c(Nc3ccc(OCc4ccccn4)c(Cl)c3)c2cc1NC(=O)CCCN1CCCC1 [Example 95, N-(4-(3-chloro-4-(pyridin-2-ylmethoxy)phenylamino)-3-cyano-7-ethoxyquinolin-6-yl)-4-(pyrrolidin-1-yl)butanamide] | < 100 | 100 to 1000 | 
20 |  | CCOc1cc2ncc(C#N)c(Nc3ccc(OCc4ccccn4)c(Cl)c3)c2cc1NC(=O)CCCOC [Example 102] | 100 to 1000 | 100 to 1000 | 
21 | < 100 | CCOc1cc2ncc(C#N)c(Nc3ccc(OCc4ncccc4C)c(Cl)c3)c2cc1NC(=O)CCCN(C)C [Example 1] | < 100 |  | 
22 | < 100 | CCOc1cc2ncc(C#N)c(Nc3ccc(OCc4ncccc4C(F)(F)F)cc3Cl)c2cc1NC(=O)CCCN(C)C [Example 81] | < 100 |  | 
23 | < 100 | CCOc1cc2ncc(C#N)c(Nc3cc(Cl)c(OCc4ncccc4C)c(Cl)c3)c2cc1NC(=O)CCCN(C)C [Example 26] | < 100 |  | 
24 | < 100 | CCOc1cc2ncc(C#N)c(Nc3ccc(OCc4ncccc4CC)c(Cl)c3)c2cc1NC(=O)CCCN(C)C [Example 45] | < 100 |  | 
25 |  | CCOc1cc2ncc(C#N)c(Nc3ccc(O)cc3C)c2cc1NC(=O)CCCN(C)C [Example 139] | 100 to 1000 | 1000 to 10000 | 
26 |  | CCOc1cc2ncc(C#N)c(Nc3ccc(OCc4ncccc4C)c(OC(F)(F)F)c3)c2cc1NC(=O)CCCN(C)C [Example 80] | 100 to 1000 | 100 to 1000 | 
27 | < 100 | CCOc1cc2ncc(C#N)c(Nc3ccc(OCc4ncccc4C)c(Br)c3)c2cc1NC(=O)CCCN(C)C [Example 24] | < 100 |  | 
28 | < 100 | CCOc1cc2ncc(C#N)c(Nc3cc(C)c(OCc4ncccc4C)cc3C)c2cc1NC(=O)CCCN(C)C [Example 34] | < 100 |  | 
29 |  | CCOc1cc2ncc(C#N)c(Nc3ccc(OCc4nccn4CC)c(Cl)c3)c2cc1NC(=O)CCCN(C)C [Example 38] | 100 to 1000 | 100 to 1000 | 
30 |  | CCOc1cc2ncc(C#N)c(Nc3ccc(OCc4ccccn4)c(Cl)c3)c2cc1NC(=O)CCCN(C)C [Example 8] | < 100 | 100 to 1000 | 
31 |  | CCOc1cc2ncc(C#N)c(Nc3ccc(OCc4ccn(C)n4)c(Cl)c3)c2cc1NC(=O)CCCN(C)C [Example 67] | 100 to 1000 | 100 to 1000 | 
32 |  | CCOc1cc2ncc(C#N)c(Nc3ccc(OCc4ccccn4)c(F)c3)c2cc1NC(=O)CCCN(C)C [Example 9] | 100 to 1000 | 100 to 1000 | 
33 | < 100 | CCOc1cc2ncc(C#N)c(Nc3ccc(OCc4cccc(C)n4)c(Cl)c3)c2cc1NC(=O)CCCN(C)C [Example 12] | < 100 |  | 
34 |  | CCOc1cc2ncc(C#N)c(Nc3ccc(OCc4ncccc4C4CC4)c(Cl)c3)c2cc1NC(=O)CCCN(C)C [Example 44] | 100 to 1000 | 100 to 1000 | 
35 | < 100 | CCOc1cc2ncc(C#N)c(Nc3ccc(OCc4ncccc4C)cc3Br)c2cc1NC(=O)CCCN(C)C [Example 74] | < 100 |  | 
36 |  | Cc1cccnc1COc1ccc(Nc2c(C#N)cnc3ccc(NC(=O)CCCN(C)C)cc23)c(Cl)c1 [Example 144, N-(4-(2-chloro-4-((3-methylpyridin-2-yl)methoxy)phenylamino)-3-cyanoquinolin-6-yl)-4-(dimethylamino)butanamide] |  | 100 to 1000 | 100 to 1000

Row | Structure (SMILES) | IC50 (MST2; [2]) [nM] | IC50 (MST1; [1]) [nM] | IC50 (MST2) [nM] | IC50 (MST1) [nM]
37 | CCOc1cc2ncc(C#N)c(Nc3ccc(OCc4ncccc4Br)c(Cl)c3)c2cc1NC(=O)CCCN(C)C [Example 15] | < 100 | < 100 |  | 
38 | CCOc1cc2ncc(C#N)c(Nc3ccc(OCc4ncccc4C)c(F)c3)c2cc1NC(=O)CCCN(C)C [Example 22] | < 100 | < 100 |  | 
39 | CCOc1cc2ncc(C#N)c(Nc3ccc(OCc4ncccc4C(F)(F)F)c(Cl)c3)c2cc1NC(=O)CCCN(C)C [Example 17] | < 100 | < 100 |  | 
